Reference: US4839353A, “Anti-ulcer substituted pyridine derivatives” (Banyu Pharmaceutical Co., Ltd., priority 1986, dated 1989)
Where a name gives a salt, the structure may show the parent alone.

Legend:
[1] = molecular target: T1, H^+,K^+ -ATPase (Oryctolagus cuniculus, UniProt P27112); experiment: Inhibitory effects on the activity of H^+,K^+ -ATPase; assay type: biochemical; conditions: H^+,K^+ -ATPase-containing light membrane fractions from rabbit gastric glands; read-out: 50% Enzyme inhibitory concentration (IC50)
T1 construct: Rabbit gastric glands were homogenized and microsomal fractions were prepared; from tissue; host or cells: rabbit gastric glands, light microsomal membrane fraction
Protocol: (1) Inhibitory effects on the activity of H^+,K^+ -ATPase Rabbit gastric glands were homogenized and microsomal fractions were prepared by differential centrifugation of the resultant homogenate. The microsomal fractions were layered on 37% sucrose and centrifuged to obtain light membrane fractions containing H^+,K^+ -ATPase. Using the H^+,K^+ -ATPase-containing fractions, the effects of the compounds of this invention and omeprazole on the activity of H^+,K^+ -ATPase were examined. The inhibitory activities of the compounds of this invention on H^+,K^+ -ATPase measured by the above method are shown in Table I.

[2] = system: gastric ulcer induced by ethanol-hydrochloric acid; experiment: Effect of preventing gastric ulcer induced by ethanol-hydrochloric acid; assay type: in vivo; conditions: SD-strain male rats, oral, 30 min before 0.2N hydrochloric acid-50% ethanol (1 ml/rat); length of bleeding erosions; read-out: 50% Effective dose (ED50, mg/kg)
Protocol: (3) Effect of preventing gastric ulcer induced by ethanol-hydrochloric acid According to the method of Robert et al. (see "Gastroenterology" 77, 433-443 (1979), SD-strain rats (male, weighing 200 to 220 g, 8 rats in each group) were deprived of food for 24 hours and of water for 19 hours. Each of the test compounds was suspended in 0.5% carboxymethyl cellulose, and orally administered to the rats. Thirty minutes after administration, 0.2N hydrochloric acid-50% ethanol (1 ml/rat) was orally administered. One hour after the administration of ethanol-hydrochloric acid, the rats were killed. The stomachs were dissected out, and the lower part of the esophagus was nipped with a clip. Aqueous 1% formalin solution (12.0 ml) was poured into the stomachs from the duodenum and then the duodenum part was nipped with a clip. The whole stomachs were immersed in aqueous 1% formalin for about 10 minutes for fixation. The stomachs were opened along the greater curvature and then rinsed with water. The gastric mucosa was examined and the lengths of bleeding erosions which occurred in the glandular stomach were measured in mm under an anatomic microscope. From the test results obtained by the above method, the ED50 (50% effective dose) of each of the test compounds was calculated.

[3] = system: gastric acid secretion; experiment: Gastric acid antisecretory activity (histamine-enhanced gastric acid secretion in anesthetized rats); assay type: in vivo; conditions: Rattus norvegicus, iv, 1.25 h; male Doryu rats, urethane anesthesia, histamine infusion 2 mg/kg/hr, test compound via jugular vein 75 min after start of infusion; read-out: Gastric acid antisecretory activity 50% Effective dose (ED50, mg/kg)
Protocol: (2) Gastric acid antisecretory activity The method of preparation was based on the technique of Osumi et al. (see "Life Science" 20, 1407, 1977). Male Doryu rats weighing about 250 g were deprived of food for 24 hours but were allowed free access to water before experiments. […] The esophagus was ligated, and bilateral vagus nerves were carefully separated and cut at the cervical portion. The abdomen was opened by a midoline incinion, and a polyethylene cannula (about 3.5 cm in length and 0.4 cm in diameter) was inserted into the stomach via an incision in the duodenum. After washout of the stomach with saline, 2.0 ml of fresh saline prewarmed at 38° C. was instilled and replaced with fresh solution at 15 min intervals. Several successive collections of basal acid secretion were made to confirm the steady level of secretion. After these collections, gastric acid secretion was enhanced by infusion of histamine. Gastric acid secretion was determined as follows: the total value of gastric solution recovered from the stomach every 15 min was titrated to pH 7.0 with 0.1N NaOH, using an automatic titrator (Radiometer, Copenhage, Denmark). Acid output secreted for 15 min were calculated as microequivalents per 15 min. […] From the acid output in a control group measured at the time when the acid output secreted was lowest, the acid secretion inhibitory ratio (R) was calculated in accordance with the following equation. [formula] wherein V° is the acid output produced when the animals were not treated with the test compounds (control), and V is the acid output acid produced when the test compounds were administered to the animals. Furthermore, from correlation line between the dose and the inhibitory ratio at the dose by using the method of least squares, the 50% inhibitory dose was determined.

T1 sequence (P27112 2-1035 limits assumed): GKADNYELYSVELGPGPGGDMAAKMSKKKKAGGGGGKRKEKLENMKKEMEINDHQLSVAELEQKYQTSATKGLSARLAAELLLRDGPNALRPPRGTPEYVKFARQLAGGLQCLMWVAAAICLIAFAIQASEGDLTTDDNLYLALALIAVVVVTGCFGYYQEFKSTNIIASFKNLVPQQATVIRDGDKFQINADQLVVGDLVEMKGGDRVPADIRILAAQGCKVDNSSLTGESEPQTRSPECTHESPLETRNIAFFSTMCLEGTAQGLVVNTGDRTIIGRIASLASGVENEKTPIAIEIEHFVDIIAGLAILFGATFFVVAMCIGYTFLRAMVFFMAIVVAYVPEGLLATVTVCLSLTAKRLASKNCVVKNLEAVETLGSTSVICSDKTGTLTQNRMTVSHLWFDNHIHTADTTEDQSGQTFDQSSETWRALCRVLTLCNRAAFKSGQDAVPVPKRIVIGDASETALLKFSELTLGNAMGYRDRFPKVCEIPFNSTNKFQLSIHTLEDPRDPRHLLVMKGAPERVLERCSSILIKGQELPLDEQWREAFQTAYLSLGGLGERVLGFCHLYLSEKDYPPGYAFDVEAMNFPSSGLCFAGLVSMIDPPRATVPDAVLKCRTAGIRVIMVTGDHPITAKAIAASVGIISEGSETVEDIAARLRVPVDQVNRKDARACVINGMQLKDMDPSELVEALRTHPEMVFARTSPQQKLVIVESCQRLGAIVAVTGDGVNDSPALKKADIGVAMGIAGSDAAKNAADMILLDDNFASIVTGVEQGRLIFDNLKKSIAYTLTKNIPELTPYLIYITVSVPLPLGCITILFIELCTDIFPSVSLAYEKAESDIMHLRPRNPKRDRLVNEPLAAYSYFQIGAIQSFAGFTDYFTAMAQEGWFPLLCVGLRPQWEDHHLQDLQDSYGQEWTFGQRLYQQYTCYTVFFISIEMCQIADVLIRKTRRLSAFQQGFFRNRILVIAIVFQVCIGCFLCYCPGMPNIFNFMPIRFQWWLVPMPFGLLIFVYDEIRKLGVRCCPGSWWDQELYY
T1 sequence (P18597 whole entry partner): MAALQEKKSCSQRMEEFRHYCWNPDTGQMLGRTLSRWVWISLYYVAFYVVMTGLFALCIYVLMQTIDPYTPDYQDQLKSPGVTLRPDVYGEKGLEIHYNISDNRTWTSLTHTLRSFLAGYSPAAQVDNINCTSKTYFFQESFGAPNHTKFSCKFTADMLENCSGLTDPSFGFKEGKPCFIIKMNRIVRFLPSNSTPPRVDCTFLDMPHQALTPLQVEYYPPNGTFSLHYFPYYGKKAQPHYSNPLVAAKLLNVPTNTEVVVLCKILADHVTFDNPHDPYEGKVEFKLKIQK

In the case of Cc1cnc(COc2ccccc2)cc1N1CCCCC1.Cl [Test compound 1, 5-methyl-2-phenoxymethyl-4-piperidinopyridine hydrochloride], the IC50 [1] is reported as 8.4 µM and the ED50 [2] is reported as 12.1 mg/kg.
Work on Cc1cnc(CSc2ccccc2)cc1N1CCCCC1.Cl [Test compound 5, 5-methyl-2-phenylthiomethyl-4-piperidinopyridine hydrochloride] yielded an IC50 [1] of 16 µM and an ED50 [2] of 9.2 mg/kg.
For Cc1cnc(CSc2ccc3ccccc3c2)cc1N1CCCCC1.Cl [Test compound 6, 5-methyl-2-[(2-naphthyl)thiomethyl]-4-piperidinopyridine hydrochloride], the IC50 [1] was 9 µM and the ED50 [2] was 7.3 mg/kg.
Cc1cnc(/C=C\c2ccc(Cl)c3ccccc23)cc1N1CCCCC1.Cl [Test compound 8, (Z)-2-[2-(4-chloro-1-naphthyl)vinyl]-5-methyl-4-piperidinopyridine hydrochloride] showed an IC50 [1] of 4.8 µM and an ED50 [3] of 2.78 mg/kg.
Cc1cnc(/C=C\c2cccc3c(C)cccc23)cc1N1CCCCC1 [Test compound 10, (Z)-2-[2-(5-methyl-1-naphthyl)vinyl]-5-methyl-4-piperidinopyridine hydrochloride] gave an IC50 [1] of 6 µM.
Cc1cnc(/C=C\c2cccc3cccc(C)c23)cc1N1CCCCC1 [Test compound 11, (Z)-2-[2-(8-methyl-1-naphthyl)vinyl]-5-methyl-4-piperidinopyridine] was tested, and the IC50 [1] was 2.3 µM and the ED50 [3] was 0.92 mg/kg.
Cc1cnc(/C=C\c2cccc3ccccc23)cc1N1CCC(C)CC1.Cl [Test compound 14, (Z)-5-methyl-4-(4-methylpiperidino)-2-[2-(1-naphthyl)vinyl]pyridine hydrochloride] showed an IC50 [1] of 2.8 µM and an ED50 [3] of 1.09 mg/kg.
With C(=C/c1cnccc1N1CCCCC1)/c1ccc2ccccc2c1 [Test compound 16, (Z)-3-[2-(2-naphthyl)vinyl]-4-piperidinopyridine] the IC50 [1] was 2.6 µM.
Cc1cnc(/C=C/c2ccc3ccccc3c2)cc1N1CCCCC1 [Test compound 17, (E)-5-methyl-2-[2-(2-naphthyl)vinyl]-4-piperidinopyridine hydrochloride] gave an IC50 [1] of 4.3 µM.
With Cc1cnc(/C=C\c2ccc3ccccc3c2)cc1N1CCCCC1 [Test compound 18, (Z)-5-methyl-2-[2-(2-naphthyl)vinyl]-4-piperidinopyridine hydrochloride] the IC50 [1] was 8.4 µM.
With Cc1ccc2cc(/C=C\c3cc(N4CCCCC4)c(C)cn3)ccc2c1 [Test compound 19, (Z)-5-methyl-2-[2-(6-methyl-2-naphthyl)-vinyl]-4-piperidinopyridine] the IC50 [1] was 7.8 µM.
Cc1cnc(/C=C\c2cccc(Cl)c2Cl)cc1N1CCCCC1 [Test compound 20, (Z)-2-[2-(2,3-dichlorophenyl)vinyl]-5-methyl-4-piperidinopyridine hydrochloride] gave an IC50 [1] of 4.6 µM.
In the case of Cc1cnc(CCc2cccc3ccccc23)cc1N1CCC(C)CC1.Cl [Test compound 21, 5-methyl-4-(4-methylpiperidino)-2-[2-(1-naphthyl)ethyl]pyridine hydrochloride], the IC50 [1] is reported as 2.7 µM and the ED50 [3] is reported as 0.78 mg/kg.
With Cc1cnc(CCc2cccc3ccccc23)cc1N1CCCCC1 [Test compound 22, 5-methyl-2-[2-(1-naphthyl)ethy]-4-piperidinopyridine hydrochloride] the IC50 [1] was 3.6 µM, the ED50 [2] was 5.4 mg/kg and the ED50 [3] was 2.5 mg/kg.
In the case of Cc1cnc(CCc2ccc(C)c3ccccc23)cc1N1CCCCC1 [Test compound 23, 5-methyl-2-[2-(4-methyl-1-naphthyl)-ethyl]-4-piperidinopyridine hydrochloride], the IC50 [1] is reported as 4.6 µM.
Cc1cnc(CCc2cccc3cccc(C)c23)cc1N1CCCCC1.Cl [Test compound 24, 5-methyl-2-[2-(8-methyl-1-naphthyl)-ethyl]-4-piperidinopyridine hydrochloride] gave an IC50 [1] of 6 µM and an ED50 [3] of 2.72 mg/kg.
For Cc1cnc(CCc2cccc3ccccc23)cc1OC1CCCCC1.Cl [Test compound 25, 4-cyclohexyloxy-5-methyl-2-[2-(1-naphthyl)ethyl]pyridine hydrochloride], the IC50 [1] was 2.6 µM and the ED50 [3] was 0.91 mg/kg.
For Cc1cnc(CCc2cccc3ccccc23)cc1N1CCCC(C)C1.Cl (stereo not drawn) [Test compound 26, 5-methyl-4-(3-methylpiperidino)-2-[2-(1-naphthyl)ethyl]pyridine hydrochloride], the IC50 [1] was 1.7 µM and the ED50 [3] was 0.91 mg/kg.
Cc1cnc(CCc2ccccc2)cc1N1CCCCC1.Cl [Test compound 27, 5-methyl-2-phenethyl-4-piperidinopyridine hydrochloride] was tested, and the ED50 [2] was 5.4 mg/kg.
With Cc1cnc(CCc2ccc3ccccc3c2)cc1N1CCCCC1.Cl [Test compound 28, 5-methyl-2-[2-(2-naphthyl)ethyl]-4-piperidinopyridine hydrochloride] the IC50 [1] was 3 µM and the ED50 [2] was 3.6 mg/kg.
Molecule Cc1ccc2cc(CCc3cc(N4CCCCC4)c(C)cn3)ccc2c1 [Test compound 29, 5-methyl-2-[2-(6-methyl-2-naphthyl)-ethyl]-4-piperidinopyridine hydrochloride] has an IC50 [1] of 2.3 µM.
In the case of Cc1cnc(COc2ccc(C(C)(C)C)cc2)cc1N1CCCCC1 [compound 2], the IC50 [1] is reported as 3.5 µM.
With CCC(C)c1ccc(OCc2cc(N3CCCCC3)c(C)cn2)cc1 (stereo not drawn) [compound 3] the IC50 [1] was 4.1 µM.
For Cc1cnc(COc2ccc(C3CCCCC3)cc2)cc1N1CCCCC1 [compound 4], the IC50 [1] was 3.8 µM.
Molecule Cc1cnc(/C=C\c2cccc3ccccc23)cc1N1CCCCC1 [compound 7] has an IC50 [1] of 2.2 µM and an ED50 [3] of 1.16 mg/kg.
Work on Cc1cnc(/C=C\c2ccc(F)c3ccccc23)cc1N1CCCCC1 [compound 9] yielded an IC50 [1] of 5.9 µM.
Molecule Cc1cnc(/C=C\c2cccc3ccccc23)cc1OC1CCCCC1 [compound 12] has an IC50 [1] of 3.5 µM and an ED50 [3] of 1.35 mg/kg.
Cc1cnc(/C=C\c2cccc3ccccc23)cc1N1CCCCCC1 [compound 13] was tested, and the IC50 [1] was 0.78 µM and the ED50 [3] was 0.9 mg/kg.
For Cc1cnc(/C=C\c2cccc3ccccc23)cc1N1CCCC(C)C1 (stereo not drawn) [compound 15], the IC50 [1] was 1.7 µM and the ED50 [3] was 0.99 mg/kg.
Molecule COc1ccc2[nH]c([S+]([O-])Cc3ncc(C)c(OC)c3C)nc2c1 (stereo not drawn) [omeprazole, reference compound] has an IC50 [1] of 6.2 µM and an ED50 [2] of 34.1 mg/kg.
